Literature values as cited in patent US8932634B2, “Hydrocolloid carrier beads with inert filler material” (Yissum Research Development Company of the Hebrew …, priority 2006, dated 2015).
Counter-ions that a name gives are not always drawn.

COc1ccc([C@@H]2Sc3ccccc3N(CCN(C)C)C(=O)[C@@H]2OC(C)=O)cc1 [Diltiazem hydrochloride]
solubility in water: high
